Structures are written as SMILES. Converted amounts (≈) assume the structure as drawn. Some results are limits rather than exact numbers.

Here are results for 3 compounds from ChEMBL document CHEMBL4346735, “Discovery and pharmacological evaluation of indole derivatives as potent and selective RORγt inverse agonist for multiple autoimmune conditions” (Bioorg Med Chem Lett, 2019).

Data set [1] concerns the target T1, Nuclear receptor ROR-gamma (Mus musculus) (UniProt P51450).
T1 sequence (whole entry): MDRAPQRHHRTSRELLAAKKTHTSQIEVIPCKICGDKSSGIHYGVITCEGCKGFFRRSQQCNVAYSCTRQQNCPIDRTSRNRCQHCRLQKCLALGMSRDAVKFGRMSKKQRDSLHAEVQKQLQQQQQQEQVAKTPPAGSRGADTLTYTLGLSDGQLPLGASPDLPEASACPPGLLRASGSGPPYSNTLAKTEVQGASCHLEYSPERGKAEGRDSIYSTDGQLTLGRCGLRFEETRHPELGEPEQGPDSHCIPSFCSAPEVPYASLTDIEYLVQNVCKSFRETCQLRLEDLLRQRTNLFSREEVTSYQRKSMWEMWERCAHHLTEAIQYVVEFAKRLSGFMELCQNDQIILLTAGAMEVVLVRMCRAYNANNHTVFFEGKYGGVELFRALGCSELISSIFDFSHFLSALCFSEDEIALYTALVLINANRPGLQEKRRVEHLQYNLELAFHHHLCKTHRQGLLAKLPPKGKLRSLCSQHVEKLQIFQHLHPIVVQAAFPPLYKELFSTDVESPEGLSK
The data set can be described thus: Transrepression of RORgammat in Balb/c mouse splenocytes assessed as inhibition of anti-CD3/anti-CD28 stimulated IL-17 gene expression at 0.3 uM measured after 24 hrs in presence of anti-CD3/anti-CD28. Type of data set: cell-based.

Data set [2] is described as follows: Drug metabolism in mouse liver microsomes assessed as oxidation metabolic rate at 1 uM preincubated for 5 mins followed by NADPH addition after 30 mins by LC-MS/MS analysis. The conditions noted are these: 0.5 h. Type of data set: ADME, Microsome. In general terms: Liver microsomes are a subcellular fraction often used to study metabolism.
Data set [3] in a line: Clearance in Balb/c mouse at 3 mg/kg, iv administered as single dose by LC-MS/MS analysis. The data set is classed as ADME, organism-based. As to conditions: in vivo.
Data set [4] concerns the target T1, Nuclear receptor ROR-gamma (Mus musculus). Nature of the data set: Transrepression of RORgammat in Balb/c mouse splenocytes assessed as inhibition of anti-CD3/anti-CD28 stimulated IL-17 gene expression at 30 uM measured after 24 hrs in presence of anti-CD3/anti-CD28. Type of data set: cell-based.
A short description of data set [5]: Oral bioavailability in Balb/c mouse at 10 mg/kg administered via gavage by LC-MS/MS analysis. Type of data set: ADME, organism-based. The conditions noted are these: in vivo.
Data set [6] is described as follows: Drug metabolism in human pooled liver microsomes assessed as oxidation metabolic rate at 1 uM preincubated for 5 mins followed by NADPH addition after 30 mins by LC-MS/MS analysis. The data set is classed as ADME, Microsome. The conditions noted are these: 0.5 h.
Data set [7] is described as follows: Drug metabolism in rat liver microsomes assessed as oxidation metabolic rate at 1 uM preincubated for 5 mins followed by NADPH addition after 30 mins by LC-MS/MS analysis. Type of data set: ADME, Microsome. As to conditions: 0.5 h.
Data set [8] has as its target T2, Nuclear receptor ROR-gamma (Homo sapiens, UniProt P51449).
T2 sequence (P51449 whole entry): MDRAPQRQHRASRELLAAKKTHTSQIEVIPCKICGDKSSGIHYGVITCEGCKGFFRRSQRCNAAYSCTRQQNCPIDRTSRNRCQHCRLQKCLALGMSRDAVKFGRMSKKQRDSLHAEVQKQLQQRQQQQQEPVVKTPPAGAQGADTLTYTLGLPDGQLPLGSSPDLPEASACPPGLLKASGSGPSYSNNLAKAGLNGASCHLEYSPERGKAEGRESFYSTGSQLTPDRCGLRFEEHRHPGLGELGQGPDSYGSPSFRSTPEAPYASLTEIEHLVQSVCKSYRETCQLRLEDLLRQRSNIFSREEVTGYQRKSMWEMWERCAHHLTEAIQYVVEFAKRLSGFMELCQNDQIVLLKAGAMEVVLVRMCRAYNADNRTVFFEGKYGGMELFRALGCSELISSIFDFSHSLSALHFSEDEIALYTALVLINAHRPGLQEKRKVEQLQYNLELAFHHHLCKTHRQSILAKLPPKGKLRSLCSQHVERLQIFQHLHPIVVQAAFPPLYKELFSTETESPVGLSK
The data set can be described thus: Transactivation of recombinant GAL4-DBD fused RORgammat LBD (unknown origin) expressed in HEK293T cells incubated for 18 to 24 hrs by dual-Glo luciferase assay. The data set is classed as cell-based.

Data set [9] addresses T1, Nuclear receptor ROR-gamma (Mus musculus). Nature of the data set: Transrepression of RORgammat in Balb/c mouse splenocytes assessed as inhibition of anti-CD3/anti-CD28 stimulated IL-17 gene expression at 3 uM measured after 24 hrs in presence of anti-CD3/anti-CD28. Type of data set: cell-based.
Data set [10] in a line: AUC (0 to t) in Balb/c mouse at 3 mg/kg, iv administered as single dose by LC-MS/MS analysis. As to conditions: in vivo. Type of data set: ADME, organism-based.
Data set [11] has as its target T2, Nuclear receptor ROR-gamma. The data set can be described thus: Inverse agonist activity at GST-tagged RORgammat LBD (unknown origin) using fluorescein-D22 co-activator peptide as substrate incubated for 1 hr by TR-FRET assay. In general terms: TR-FRET usually uses a lanthanide donor and a delayed reading to cut background.
The nature of data set [12]: Half life in Balb/c mouse at 3 mg/kg, iv administered as single dose by LC-MS/MS analysis. The data set is classed as ADME, organism-based. The conditions noted are these: in vivo.
Data set [13] has as its target T3, Nuclear receptor ROR-gamma (Mus musculus, UniProt P51450).
T3 sequence (P51450 whole entry): T1 sequence (whole entry)
The data set can be described thus: Inverse agonist activity at RORgammat in mouse splenocytes derived naive T cells assessed as suppression of T cell differentiation to Th17 cells by measuring IL-17 secretion in presence of […]/anti-IFNgamma/TGFbeta/IL-6 for 6 days by ELISA. Type of data set: cell-based.

Data set [14] concerns the target T4, Nuclear receptor ROR-gamma (Homo sapiens) (UniProt P51449).
T4 sequence (whole entry): T2 sequence (P51449 whole entry)
The data set can be described thus: Transactivation of recombinant GAL4-DBD fused RORgammat LBD (unknown origin) expressed in HEK293T cells at 10 uM incubated for 18 to 24 hrs by dual-Glo luciferase assay relative to control. The data set is classed as cell-based.

A short description of data set [15]: Metabolic stability in rat liver microsomes assessed as parent compound remaining at 1 uM preincubated for 5 mins followed by NADPH addition after 30 mins by LC-MS/MS analysis. The data set is classed as ADME, Microsome. As to conditions: read-out: Stability.
Data set [16] is described as follows: Metabolic stability in human liver microsomes assessed as parent compound remaining at 1 uM preincubated for 5 mins followed by NADPH addition after 30 mins by LC-MS/MS analysis. The data set is classed as ADME, Microsome. The conditions noted are these: read-out: Stability.
Data set [17] is described as follows: Metabolic stability in mouse liver microsomes assessed as parent compound remaining at 1 uM preincubated for 5 mins followed by NADPH addition after 30 mins by LC-MS/MS analysis. As to conditions: read-out: Stability. Type of data set: ADME, Microsome.
A short description of data set [18]: Solubility of the compound at pH 7.4. The conditions noted are these: buffer.
The next data set has as its target Cytochrome P450 2C9 (Homo sapiens, UniProt P11712). The data set can be described thus: Inhibition of CYP2C9 in human liver microsomes using diclofenac as substrate preincubated for 5 mins followed by NADPH addition measured after 10 mins by LC-MS/MS analysis.
The nature of data set [19]: Solubility of the compound at pH 2.1. As to conditions: buffer.
Data set [20] deals with T5, Cytochrome P450 3A4 (Homo sapiens, UniProt P08684). The data set can be described thus: Inhibition of CYP3A4 in human liver microsomes using midazolam as substrate preincubated for 5 mins followed by NADPH addition measured after 10 mins by LC-MS/MS analysis.
T5 sequence (P08684 whole entry): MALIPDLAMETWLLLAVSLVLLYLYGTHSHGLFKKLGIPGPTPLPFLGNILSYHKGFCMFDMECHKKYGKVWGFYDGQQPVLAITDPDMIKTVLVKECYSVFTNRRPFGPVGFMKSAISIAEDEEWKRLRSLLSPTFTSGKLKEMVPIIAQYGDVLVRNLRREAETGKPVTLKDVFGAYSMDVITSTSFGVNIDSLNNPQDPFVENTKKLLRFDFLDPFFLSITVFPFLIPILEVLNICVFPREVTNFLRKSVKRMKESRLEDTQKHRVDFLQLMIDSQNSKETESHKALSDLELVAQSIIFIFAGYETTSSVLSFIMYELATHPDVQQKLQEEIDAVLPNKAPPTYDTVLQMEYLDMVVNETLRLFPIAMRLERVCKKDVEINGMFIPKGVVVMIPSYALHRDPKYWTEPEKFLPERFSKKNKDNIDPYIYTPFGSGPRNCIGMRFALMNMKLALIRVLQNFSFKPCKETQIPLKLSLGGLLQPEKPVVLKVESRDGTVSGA
A further data set concerns the target Cytochrome P450 2D6 (Homo sapiens, UniProt P10635). The data set can be described thus: Inhibition of CYP2D6 in human liver microsomes using dextromethorphan as substrate preincubated for 5 mins followed by NADPH addition measured after 10 mins by LC-MS/MS analysis.
For a further data set, the target named is T6, Cytochrome P450 1A2 (Homo sapiens, UniProt P05177).
T6 sequence (P05177 whole entry): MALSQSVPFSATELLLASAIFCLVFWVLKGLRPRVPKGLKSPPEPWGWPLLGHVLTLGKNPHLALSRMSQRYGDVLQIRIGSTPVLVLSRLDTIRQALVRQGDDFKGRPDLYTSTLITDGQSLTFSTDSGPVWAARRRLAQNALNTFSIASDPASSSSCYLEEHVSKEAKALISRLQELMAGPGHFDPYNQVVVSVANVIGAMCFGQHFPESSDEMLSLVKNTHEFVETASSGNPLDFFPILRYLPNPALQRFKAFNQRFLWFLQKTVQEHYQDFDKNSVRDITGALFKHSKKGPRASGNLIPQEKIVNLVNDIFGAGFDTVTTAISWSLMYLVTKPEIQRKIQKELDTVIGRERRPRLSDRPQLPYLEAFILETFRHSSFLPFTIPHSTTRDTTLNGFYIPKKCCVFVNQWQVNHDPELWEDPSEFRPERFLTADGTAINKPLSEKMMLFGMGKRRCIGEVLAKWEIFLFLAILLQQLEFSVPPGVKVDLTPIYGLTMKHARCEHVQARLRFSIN
The data set can be described thus: Inhibition of CYP1A2 in human liver microsomes using phenacetin as substrate preincubated for 5 mins followed by NADPH addition measured after 10 mins by LC-MS/MS analysis.

For data set [21], the target named is T5, Cytochrome P450 3A4. Nature of the data set: Inhibition of CYP3A4 in human liver microsomes using testosterone as substrate preincubated for 5 mins followed by NADPH addition measured after 10 mins by LC-MS/MS analysis.
Data set [22] in a line: Solubility of the compound at pH 4. As to conditions: buffer.
The target of another data set is Cytochrome P450 2C19 (Homo sapiens, UniProt P33261). Nature of the data set: Inhibition of CYP2C19 in human liver microsomes using (S)-mephenytoin as substrate preincubated for 5 mins followed by NADPH addition measured after 40 mins by LC-MS/MS analysis.
Chain of Cytochrome P450 2C19 (P33261 whole entry): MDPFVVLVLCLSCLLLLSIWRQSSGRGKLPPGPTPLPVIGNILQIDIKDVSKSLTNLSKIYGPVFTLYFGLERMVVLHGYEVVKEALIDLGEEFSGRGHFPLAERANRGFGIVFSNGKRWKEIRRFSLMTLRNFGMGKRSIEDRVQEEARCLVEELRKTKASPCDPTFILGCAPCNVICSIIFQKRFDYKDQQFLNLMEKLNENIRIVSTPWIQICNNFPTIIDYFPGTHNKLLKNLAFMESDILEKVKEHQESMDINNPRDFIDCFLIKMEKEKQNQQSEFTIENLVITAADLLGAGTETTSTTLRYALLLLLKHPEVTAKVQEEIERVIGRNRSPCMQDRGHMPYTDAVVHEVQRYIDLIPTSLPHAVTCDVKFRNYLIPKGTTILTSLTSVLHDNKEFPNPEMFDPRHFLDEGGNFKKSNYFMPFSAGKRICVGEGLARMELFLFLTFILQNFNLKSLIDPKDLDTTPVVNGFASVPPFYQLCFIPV

Chain of Cytochrome P450 2D6 (P10635 whole entry): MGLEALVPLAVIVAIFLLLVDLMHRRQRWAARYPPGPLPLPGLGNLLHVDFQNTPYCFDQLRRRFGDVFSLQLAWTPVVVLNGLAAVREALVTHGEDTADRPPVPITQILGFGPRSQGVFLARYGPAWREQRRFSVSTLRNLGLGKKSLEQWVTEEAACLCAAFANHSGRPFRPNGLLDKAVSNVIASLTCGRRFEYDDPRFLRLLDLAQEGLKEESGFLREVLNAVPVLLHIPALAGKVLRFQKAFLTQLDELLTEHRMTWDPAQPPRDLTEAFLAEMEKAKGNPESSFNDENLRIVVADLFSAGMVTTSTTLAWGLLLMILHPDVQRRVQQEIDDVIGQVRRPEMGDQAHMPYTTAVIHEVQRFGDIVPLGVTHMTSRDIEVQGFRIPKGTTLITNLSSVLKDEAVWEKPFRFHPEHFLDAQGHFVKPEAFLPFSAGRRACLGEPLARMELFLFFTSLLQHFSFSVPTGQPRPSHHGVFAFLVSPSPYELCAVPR
Chain of Cytochrome P450 2C9 (P11712 whole entry): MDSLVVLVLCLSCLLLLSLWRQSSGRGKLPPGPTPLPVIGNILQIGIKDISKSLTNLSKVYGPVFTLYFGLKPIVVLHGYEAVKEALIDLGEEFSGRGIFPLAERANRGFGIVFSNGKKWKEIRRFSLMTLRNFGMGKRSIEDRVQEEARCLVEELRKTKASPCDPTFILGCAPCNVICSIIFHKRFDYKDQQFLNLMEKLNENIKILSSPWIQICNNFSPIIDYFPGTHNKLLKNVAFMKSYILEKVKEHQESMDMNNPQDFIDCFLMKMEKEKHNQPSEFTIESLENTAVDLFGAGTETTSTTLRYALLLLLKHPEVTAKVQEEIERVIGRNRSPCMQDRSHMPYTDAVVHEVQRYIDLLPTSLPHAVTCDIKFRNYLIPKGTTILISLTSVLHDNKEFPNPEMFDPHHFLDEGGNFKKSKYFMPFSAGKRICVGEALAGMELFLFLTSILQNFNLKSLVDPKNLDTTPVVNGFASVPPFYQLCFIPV

On to `O=C(O)c1ccc(-c2nn(C(=O)c3c(Cl)cccc3Cl)c3ccccc23)cc1`, for which the inhibition in [1] was 15%; in data set [4] it was 52%; in data set [9], 48%. Further, the Drug metabolism in data set [2] was under 0.04 nmol/min/mg; in data set [6], 0.04 nmol/min/mg; in data set [7] it was 0.19 nmol/min/mg. In addition, the clearance in data set [3] turned out to be 12.9 mL/min/kg. In data set [5], the bioavailability amounted to 42%. The IC50 is 20 nM in [8], 2 nM in [11] and 43 nM in data set [13]. The same compound showed an AUC(0-t) in data set [10] of 13.2 µM·h. In data set [12], the half-life is 1.12 h.
Consider `O=C(O)c1ccc(-n2cc(C(=O)c3c(Cl)cccc3Cl)c3ncccc32)cc1`, for which, in [14], the inhibition amounted to 3%. The remaining at 0.5 h, 1 µM came to 96% in data set [15], 94% in data set [16] and 100% in data set [17].
As for `O=C(O)c1ccc(-n2cc(C(=O)c3c(Cl)cccc3Cl)c3ccccc32)cc1`, the Drug metabolism is given as under 0.04 nmol/min/mg in data set [2], under 0.04 nmol/min/mg in data set [6] and 0.08 nmol/min/mg in data set [7]. In data set [3], the clearance was determined as 17 mL/min/kg. In addition, the values for the solubility in data set [18], in data set [19] and in data set [22] were 19 µM (≈ 7.79 µg/mL), under 1 µM and under 1 µM, respectively. In data set [5], this compound gave a bioavailability of 53%. For the same compound, the IC50 at Cytochrome P450 2C9 was 3800 nM; against Cytochrome P450 3A4 [20] it was over 100000 nM; in [8] it was 28 nM; against Cytochrome P450 2D6 it was over 100000 nM; at Cytochrome P450 1A2, 29900 nM; against Cytochrome P450 3A4 [21], 15500 nM. Moreover, the IC50 in [11] was 1.6 nM; in [13], 58 nM; against Cytochrome P450 2C19, 67600 nM. The figures for the remaining at 0.5 h, 1 µM in data set [15], in [16] and in [17] were 76%, 99% and 99%, respectively. In data set [10], the AUC(0-t) stood at 12.5 µM·h. The half-life in data set [12] is 4.6 h.

As usually defined, the inhibition is how much of the control response was suppressed. One may read the clearance as the rate of elimination divided by the concentration. A lower clearance goes with inefficient removal. In general, bioavailability refers to the share of a dose that reaches the circulation, judged against a reference dose that is usually intravenous. Read a low bioavailability as little systemic uptake. The term IC50 denotes the concentration that gives 50% inhibition. The term AUC(0-t) denotes the area under the concentration-time curve up to a stated or last time point. Low values mean low exposure, high ones high exposure. Usually half-life stands for the time needed for the level to fall by half in the phase considered. A low value points to rapid decline. For orientation: solubility means the dissolved amount per volume that the medium holds. Low values mean a poorly soluble substance, high ones a readily soluble substance.
